Measurements published in patent US9981916B2 (Genentech, Inc., priority 2013, dated 2018).

Target: T1, RORc ligand binding domain (Homo sapiens, UniProt P51449)
T1 construct: host or cells: E. coli
T1 sequence (P51449 269-508 limits assumed): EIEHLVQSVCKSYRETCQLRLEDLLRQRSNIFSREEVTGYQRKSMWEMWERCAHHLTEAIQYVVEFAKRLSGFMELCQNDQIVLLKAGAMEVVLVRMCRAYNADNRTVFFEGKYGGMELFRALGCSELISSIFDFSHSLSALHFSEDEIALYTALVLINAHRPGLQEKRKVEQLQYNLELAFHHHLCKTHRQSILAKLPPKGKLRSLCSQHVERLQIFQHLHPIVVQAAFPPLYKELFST
Experiment: In vitro RORc ligand binding assay (25-[3H]hydroxycholesterol displacement, filter binding)
Settings: 6 nM 25-[3H]hydroxycholesterol, 0.6 ug/mL RORc receptor, 3 h at 25° C.
Procedure, shortened: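 Filter-binding displacement of 6 nM 25-[3H]hydroxycholesterol from RORc receptor (0.6 ug/mL) in 50 mM HEPES pH 7.4, 150 mM NaCl, 5 mM MgCl2, 1 mM DTT, 0.01% BSA, 5% DMSO; 3 h at 25° C. NSB defined with 1 uM 25-hydroxycholesterol; scintillation counting gave Kiapp, IC50 or % inhibition (screening at 1 and 10 uM).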

Row | IC50 [nM] | Compound
1 | 36 | CCN(C[C@@]12CC[C@@H](c3cc(-c4c(F)cccc4F)nnc31)C2(C)C)C(=O)N(C)C [Example 278, 1-(((5R,8S)-3-(2,6-difluorophenyl)-9,9-dimethyl-5,6,7,8-tetrahydro-5,8-methanocinnolin-8-yl)methyl)-1-ethyl-3,3-dimethylurea]
2 | 608 | CC1(C)[C@H]2CC[C@]1(C(=O)N1CCC1)c1nnc(-c3c(F)cccc3F)cc12 [Example 141, azetidin-1-yl((5R,8R)-3-(2,6-difluorophenyl)-9,9-dimethyl-5,6,7,8-tetrahydro-5,8-methanocinnolin-8-yl)methanone]
3 | 33 | CCN(C[C@@]12CC[C@@H](c3cc(-c4c(F)cccc4F)nnc31)C2(C)C)C(=O)CS(C)(=O)=O [Example 318, N-(((5R,8S)-3-(2,6-difluorophenyl)-9,9-dimethyl-5,6,7,8-tetrahydro-5,8-methanocinnolin-8-yl)methyl)-N-ethyl-2-(methylsulfonyl)acetamide]
4 | 1450 | CN1CCN(C[C@]23CC[C@H](c4cc(-c5ccccc5F)nnc42)C3(C)C)C1=O [Example 46, 1-{[(5S,8R)-3-(2-fluorophenyl)-9,9-dimethyl-6,7-dihydro-5,8-methanocinnolin-8(5H)-yl]methyl}-3-methylimidazolidin-2-one]
5 | 540 | CC1(C)[C@H]2CC[C@]1(C(=O)N1CCC1)c1nnc(Oc3c(F)cccc3F)cc12 [Example 337, azetidin-1-yl((5R,8R)-3-(2,6-difluorophenoxy)-9,9-dimethyl-5,6,7,8-tetrahydro-5,8-methanocinnolin-8-yl)methanone]
6 | 1550 | CC1(C)[C@@H]2CC[C@@]1(CC#N)c1nnc(-c3ccccc3F)cc12 [Example 16]
7 | 1420 | CC1(C)CN(C(=O)[C@@]23CC[C@@H](c4cc(-c5c(F)cccc5F)nnc42)C3(C)C)C1 [Example 142, ((5R,8R)-3-(2,6-difluorophenyl)-9,9-dimethyl-5,6,7,8-tetrahydro-5,8-methanocinnolin-8-yl)(3,3-dimethylazetidin-1-yl)methanone]
8 | 19 | Cc1ncc([C@@]23CC[C@@H](c4cc(-c5c(F)cccc5F)nnc42)C3(C)C)o1 [Example 117, (5R,8R)-3-(2,6-difluorophenyl)-9,9-dimethyl-8-(2-methyl-1,3-oxazol-5-yl)-5,6,7,8-tetrahydro-5,8-methanocinnoline]
9 | 327 | CC1(C)[C@@H]2CC[C@@]1(C(=O)N1C[C@@H]3C[C@H]1CN3S(C)(=O)=O)c1nnc(-c3c(F)cccc3F)cc12 [Example 241, ((5S,8S)-3-(2,6-difluorophenyl)-9,9-dimethyl-5,6,7,8-tetrahydro-5,8-methanocinnolin-8-yl)((1S,4S)-5-(methylsulfonyl)-2,5-diazabicyclo[2.2.1]heptan-2-yl)methanone]
10 | 1530 | CC1(C)[C@@H]2CC[C@@]1(C#N)c1nnc(-c3ccccc3F)cc12 [Example 52, (5S,8S)-3-(2-fluorophenyl)-9,9-dimethyl-6,7-dihydro-5,8-methanocinnoline-8(5H)-carbonitrile]
11 | 87 | CC1(C)[C@H]2CC[C@]1(C)c1nnc(Oc3c(F)cccc3Cl)cc12 [Example 97, (5R,8S)-3-(2-chloro-6-fluorophenoxy)-8,9,9-trimethyl-5,6,7,8-tetrahydro-5,8-methanocinnoline]
12 | 66 | CC1(C)[C@H]2CC[C@]1(COCc1ccccc1)c1nnc(Oc3c(F)cccc3F)cc12 [Example 338, (5R,8R)-8-((benzyloxy)methyl)-3-(2,6-difluorophenoxy)-9,9-dimethyl-5,6,7,8-tetrahydro-5,8-methanocinnoline]
13 | 6 | CCN(C[C@@]12CC[C@@H](c3cc(-c4c(F)cccc4F)nnc31)C2(C)C)c1ccccn1 [Example 163, N-(((5R,8S)-3-(2,6-difluorophenyl)-9,9-dimethyl-5,6,7,8-tetrahydro-5,8-methanocinnolin-8-yl)methyl)-N-ethylpyridin-2-amine]
14 | 24 | CC1(C)[C@H]2CC[C@]1(c1ccccn1)c1nnc(-c3c(F)cccc3F)cc12 [Example 153]
15 | 12 | CCN(C[C@@]12CC[C@@H](c3cc(-c4c(F)cccc4F)nnc31)C2(C)C)c1cncc(=O)[nH]1 [Example 323, 6-((((5R,8S)-3-(2,6-difluorophenyl)-9,9-dimethyl-5,6,7,8-tetrahydro-5,8-methanocinnolin-8-yl)methyl)(ethyl)amino) pyrazin-2(1H)-one]
16 | 1380 | Cc1nnc(OC(=O)[C@]23CC[C@H](c4cc(-c5c(F)cccc5F)nnc42)C3(C)C)o1 [Example 270, (5S,8S)-5-methyl-1,3,4-oxadiazol-2-yl 3-(2,6-difluorophenyl)-9,9-dimethyl-5,6,7,8-tetrahydro-5,8-methanocinnoline-8-carboxylate]

Row | IC50 [nM] | Compound
17 | 1100 | CC1(O)CCN(C(=O)[C@]23CC[C@H](c4cc(-c5c(F)cccc5F)nnc42)C3(C)C)C1 (stereo partly drawn) [Example 219, ((5S,8S)-3-(2,6-difluorophenyl)-9,9-dimethyl-5,6,7,8-tetrahydro-5,8-methanocinnolin-8-yl)(3-hydroxy-3-methylpyrrolidin-1-yl)methanone]
18 | 1200 | CC(=O)O[C@@H]1C[C@H]2c3cc(-c4ccccc4F)nnc3[C@]1(C)C2(C)C [Example 20, (5R,7R,8S)-3-(2-fluorophenyl)-8,9,9-trimethyl-5,6,7,8-tetrahydro-5,8-methanocinnolin-7-yl acetate]
19 | 925 | CC1(C)[C@H]2CC[C@]1(C#N)c1nnc(-c3c(F)cccc3F)cc12 [Example 78, (5R,8R)-3-(2,6-difluorophenyl)-9,9-dimethyl-6,7-dihydro-5,8-methanocinnoline-8(5H)-carbonitrile]
20 | 1130 | CC1(C)[C@@H]2CC[C@@]1(C(=O)N1CCCC1CO)c1nnc(-c3c(F)cccc3F)cc12 (stereo in doubt) [Example 215, ((5S,8S)-3-(2,6-difluorophenyl)-9,9-dimethyl-5,6,7,8-tetrahydro-5,8-methanocinnolin-8-yl) ((R)-2-(hydroxymethyl)pyrrolidin-1-yl)methanone]
21 | 350 | COCC12CCC(c3cc(-c4ccccc4F)nnc31)C21CC1 (centres unmarked) [Example 40, 3′-(2-fluorophenyl)-8′-(methoxymethyl)-5′,6′,7′,8′-tetrahydro-spiro[cyclopropane-1,9′-[1,2]diaza[5,8]methanocinnoline]]
22 | 381 | CC1(C)[C@@H]2CC[C@@]1(CO)c1nnc(-c3c(F)cccc3Cl)cc12 [Example 23, [(5S,8S)-3-(2-chloro-6-fluorophenyl)-9,9-dimethyl-6,7-dihydro-5,8-methanocinnolin-8(5H)-yl]methanol]
23 | 42 | CCNC(=O)N(CC(F)F)C[C@@]12CC[C@@H](c3cc(-c4c(F)cccc4F)nnc31)C2(C)C [Example 293, 1-(2,2-difluoroethyl)-1-(((5R,8S)-3-(2,6-difluorophenyl)-9,9-dimethyl-5,6,7,8-tetrahydro-5,8-methanocinnolin-8-yl)methyl)-3-ethylurea]
24 | 40 | COc1cnc([C@@]23CC[C@@H](c4cc(-c5c(F)cccc5F)nnc42)C3(C)C)o1 [Example 195, 2-((5R,8R)-3-(2,6-difluorophenyl)-9,9-dimethyl-5,6,7,8-tetrahydro-5,8-methanocinnolin-8-yl)-5-methoxyoxazole]
25 | 192 | CC1(C)[C@H]2CC[C@]1(c1nnco1)c1nnc(-c3c(F)cccc3F)cc12 [Example 101]
26 | 22 | CC1(C)[C@H]2CC[C@]1(CN(CC(F)F)C(=O)CO)c1nnc(-c3c(F)cccc3F)cc12 [Example 308, N-(2,2-difluoroethyl)-N-(((5R,8S)-3-(2,6-difluorophenyl)-9,9-dimethyl-5,6,7,8-tetrahydro-5,8-methanocinnolin-8-yl)methyl)-2-hydroxyacetamide]
27 | 5 | CCOC(=O)N(CC)C[C@@]12CC[C@@H](c3cc(-c4c(F)cccc4F)nnc31)C2(C)C [Example 277, ethyl (((5R,8S)-3-(2,6-difluorophenyl)-9,9-dimethyl-5,6,7,8-tetrahydro-5,8-methanocinnolin-8-yl)methyl)(ethyl) carbamate]
28 | 258 | CC(=O)N(CCO)C[C@@]12CC[C@@H](c3cc(-c4c(F)cccc4F)nnc31)C2(C)C [Example 289, N-(((5R,8S)-3-(2,6-difluorophenyl)-9,9-dimethyl-5,6,7,8-tetrahydro-5,8-methanocinnolin-8-yl)methyl)-N-(2-hydroxyethyl)acetamide]
29 | 41 | COC[C@@]12CC[C@@H](c3cc(-c4c(F)cccc4Cl)nnc31)C2(C)C [Example 29, (5R,8R)-3-(2-chloro-6-fluorophenyl)-8-(methoxymethyl)-9,9-dimethyl-5,6,7,8-tetrahydro-5,8-methanocinnoline]
30 | 27 | CCN(C[C@@]12CC[C@@H](c3cc(-c4c(F)cccc4F)nnc31)C2(C)C)C(=O)CC#N [Example 160, 2-cyano-N-(((5R,8S)-3-(2,6-difluorophenyl)-9,9-dimethyl-5,6,7,8-tetrahydro-5,8-methanocinnolin-8-yl)methyl)-N-ethylacetamide]
31 | 116 | CC1(C)[C@H]2CC[C@]1(c1nnc(CO)o1)c1nnc(-c3c(F)cccc3F)cc12 [Example 68, {5-[(5R,8R)-3-(2,6-difluorophenyl)-9,9-dimethyl-6,7-dihydro-5,8-methanocinnolin-8(5H)-yl]-1,3,4-oxadiazol-2-yl}methanol]

Row | Compound | IC50 [nM]
32 | CC1(C)[C@@H]2CC[C@@]1(C(=O)N1C3CCC1CC3)c1nnc(-c3c(F)cccc3F)cc12 [Example 247, 7-azabicyclo[2.2.1]heptan-7-yl((5S,8S)-3-(2,6-difluorophenyl)-9,9-dimethyl-5,6,7,8-tetrahydro-5,8-methanocinnolin-8-yl)methanone] | 1110
